Laboratory results taken from paper PMC5988692, “AZ304, a novel dual BRAF inhibitor, exerts anti-tumour effects in colorectal cancer independently of BRAF genetic status” (British Journal of Cancer, 2018).

Columns and labels:
SRC = SRC (Homo sapiens, UniProt P12931); experiment: Sandwich ELISA kinase assay; assay type: biochemical; details: ATP Km
Method: (§1) For RAF kinases, detailed assay information was described in ref.[18] Briefly, the kinase activity of BRAF WT, BRAF V600E, or CRAF was measured using an AlphaScreen assay (Perkin Elmer, MA) monitoring MEK1/2 phosphorylation at Ser217/221. For CDK2 and CDK4 kinases, activity was also measured by AlphaScreen, monitoring phosphorylation of biotin Rb peptide at Ser780. Similarly, MAP3K7, CSF1R and JAK2 kinase activity was measured by phosphorylation of their biotinylated substrates MKK6 kinase dead protein at Ser271/Thr275, or tyrosine phosphorylation of pEY or Tyk2 Tyr1054/1055 peptides, respectively. CSK, IGF1R, EGFR, FGFR1 and SRC kinase activity was measured using a sandwich ELISA detecting phosphorylated poly EAY peptide with a HRP conjugated phosphotyrosine antibody and TMB substrate, while p38 kinase activity was measured by monitoring phosphorylation of MBP protein with radiolabeled ^33P-ATP in a filter binding format. All assays were screened under respective ATP Km conditions and inhibitor IC50s were derived from either 5 (RAF kinases, CDK2, CDK4, MAP3K7, JAK2), 10 (CSK, IGF1R, EGFR, FGFR1, SRC) or 11 (p38, CSF1R) point compound dose response.

IGF1R = IGF1R (Homo sapiens, UniProt P08069); experiment: Sandwich ELISA kinase assay; assay type: biochemical; details: ATP Km
Chain of IGF1R (P08069 31-1367, species assumed): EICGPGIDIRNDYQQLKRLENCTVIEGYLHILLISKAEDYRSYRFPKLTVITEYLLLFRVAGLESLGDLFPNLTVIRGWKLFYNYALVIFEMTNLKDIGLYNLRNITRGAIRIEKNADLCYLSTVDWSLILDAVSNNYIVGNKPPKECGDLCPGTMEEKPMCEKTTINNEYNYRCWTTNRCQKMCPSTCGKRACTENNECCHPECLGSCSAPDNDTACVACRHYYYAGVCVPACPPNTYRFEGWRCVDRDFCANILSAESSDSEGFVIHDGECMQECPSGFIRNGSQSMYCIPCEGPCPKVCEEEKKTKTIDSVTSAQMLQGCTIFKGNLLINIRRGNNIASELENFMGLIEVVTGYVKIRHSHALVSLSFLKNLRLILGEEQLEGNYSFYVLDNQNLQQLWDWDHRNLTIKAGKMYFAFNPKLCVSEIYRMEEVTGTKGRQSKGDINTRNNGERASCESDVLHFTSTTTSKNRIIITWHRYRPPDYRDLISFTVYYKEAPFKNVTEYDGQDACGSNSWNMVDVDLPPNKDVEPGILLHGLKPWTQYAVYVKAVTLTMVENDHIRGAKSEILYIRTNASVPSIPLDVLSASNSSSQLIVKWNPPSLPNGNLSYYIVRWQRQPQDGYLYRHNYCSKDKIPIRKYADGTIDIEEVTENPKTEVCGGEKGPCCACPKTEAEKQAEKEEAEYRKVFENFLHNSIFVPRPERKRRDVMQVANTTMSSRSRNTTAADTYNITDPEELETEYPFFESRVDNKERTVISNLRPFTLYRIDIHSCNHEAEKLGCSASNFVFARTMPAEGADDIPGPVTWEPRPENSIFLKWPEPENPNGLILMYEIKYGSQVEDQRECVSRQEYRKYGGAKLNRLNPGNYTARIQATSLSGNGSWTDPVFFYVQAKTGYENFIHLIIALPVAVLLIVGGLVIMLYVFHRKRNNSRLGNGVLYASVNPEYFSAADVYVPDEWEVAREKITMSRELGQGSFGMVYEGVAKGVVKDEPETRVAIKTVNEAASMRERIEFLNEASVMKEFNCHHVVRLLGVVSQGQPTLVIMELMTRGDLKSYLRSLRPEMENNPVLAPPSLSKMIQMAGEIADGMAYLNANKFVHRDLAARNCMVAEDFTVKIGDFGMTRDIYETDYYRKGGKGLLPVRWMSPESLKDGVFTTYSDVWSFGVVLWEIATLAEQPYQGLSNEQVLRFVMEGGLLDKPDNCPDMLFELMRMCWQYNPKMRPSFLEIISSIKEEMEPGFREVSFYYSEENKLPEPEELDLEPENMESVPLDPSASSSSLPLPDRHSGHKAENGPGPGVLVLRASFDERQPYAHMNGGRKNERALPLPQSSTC
Method: as §1

CSK = CSK (Homo sapiens, UniProt P41240); experiment: Sandwich ELISA kinase assay; assay type: biochemical; details: ATP Km
Chain of CSK (P41240 whole entry, species assumed): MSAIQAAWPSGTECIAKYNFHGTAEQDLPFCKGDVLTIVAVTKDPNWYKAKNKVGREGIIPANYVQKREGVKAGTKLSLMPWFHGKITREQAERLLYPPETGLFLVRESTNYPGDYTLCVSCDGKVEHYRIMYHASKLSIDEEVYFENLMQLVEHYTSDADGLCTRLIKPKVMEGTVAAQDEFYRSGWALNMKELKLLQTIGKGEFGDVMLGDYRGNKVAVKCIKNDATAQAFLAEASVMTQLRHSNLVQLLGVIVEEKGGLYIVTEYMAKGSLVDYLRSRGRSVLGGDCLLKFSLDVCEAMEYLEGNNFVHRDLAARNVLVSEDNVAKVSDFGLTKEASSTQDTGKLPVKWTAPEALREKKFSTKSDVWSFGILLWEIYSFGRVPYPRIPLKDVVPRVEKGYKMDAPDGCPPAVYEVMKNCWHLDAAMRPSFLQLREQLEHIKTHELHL
Method: as §1

EGFR = EGFR (Homo sapiens, UniProt P00533); experiment: Sandwich ELISA kinase assay; assay type: biochemical; details: ATP Km
Chain of EGFR (P00533 25-1210, species assumed): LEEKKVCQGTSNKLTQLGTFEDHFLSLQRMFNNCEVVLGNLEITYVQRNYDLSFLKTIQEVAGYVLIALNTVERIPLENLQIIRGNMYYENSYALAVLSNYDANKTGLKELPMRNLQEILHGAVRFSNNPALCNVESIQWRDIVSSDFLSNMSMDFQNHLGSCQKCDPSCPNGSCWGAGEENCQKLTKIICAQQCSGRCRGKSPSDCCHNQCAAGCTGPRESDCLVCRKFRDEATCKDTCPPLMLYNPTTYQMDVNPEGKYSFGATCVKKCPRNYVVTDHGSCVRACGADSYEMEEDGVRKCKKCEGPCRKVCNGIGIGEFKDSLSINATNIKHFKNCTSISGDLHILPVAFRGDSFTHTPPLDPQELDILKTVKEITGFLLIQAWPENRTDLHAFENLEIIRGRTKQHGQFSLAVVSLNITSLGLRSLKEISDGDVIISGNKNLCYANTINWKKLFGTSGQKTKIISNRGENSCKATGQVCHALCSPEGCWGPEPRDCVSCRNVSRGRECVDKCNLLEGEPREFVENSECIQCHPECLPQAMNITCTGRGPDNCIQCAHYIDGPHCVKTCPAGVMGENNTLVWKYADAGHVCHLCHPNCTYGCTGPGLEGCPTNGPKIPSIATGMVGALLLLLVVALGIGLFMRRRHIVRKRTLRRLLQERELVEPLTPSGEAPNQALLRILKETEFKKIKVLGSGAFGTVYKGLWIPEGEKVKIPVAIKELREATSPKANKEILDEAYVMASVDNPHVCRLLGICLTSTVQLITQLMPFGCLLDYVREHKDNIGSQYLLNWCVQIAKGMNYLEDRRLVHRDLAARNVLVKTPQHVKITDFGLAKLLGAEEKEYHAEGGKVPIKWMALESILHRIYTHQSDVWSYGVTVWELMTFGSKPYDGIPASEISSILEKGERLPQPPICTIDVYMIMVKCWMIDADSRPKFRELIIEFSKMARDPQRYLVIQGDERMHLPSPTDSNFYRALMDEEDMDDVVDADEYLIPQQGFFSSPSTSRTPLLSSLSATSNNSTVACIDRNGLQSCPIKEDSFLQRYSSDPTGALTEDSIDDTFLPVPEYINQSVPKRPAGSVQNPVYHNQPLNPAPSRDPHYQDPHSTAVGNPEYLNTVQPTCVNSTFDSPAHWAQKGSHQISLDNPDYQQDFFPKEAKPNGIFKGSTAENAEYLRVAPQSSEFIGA
Method: as §1

FGFR = FGFR (Homo sapiens, UniProt P11362); experiment: Sandwich ELISA kinase assay; assay type: biochemical; details: ATP Km
Chain of FGFR (P11362 22-822): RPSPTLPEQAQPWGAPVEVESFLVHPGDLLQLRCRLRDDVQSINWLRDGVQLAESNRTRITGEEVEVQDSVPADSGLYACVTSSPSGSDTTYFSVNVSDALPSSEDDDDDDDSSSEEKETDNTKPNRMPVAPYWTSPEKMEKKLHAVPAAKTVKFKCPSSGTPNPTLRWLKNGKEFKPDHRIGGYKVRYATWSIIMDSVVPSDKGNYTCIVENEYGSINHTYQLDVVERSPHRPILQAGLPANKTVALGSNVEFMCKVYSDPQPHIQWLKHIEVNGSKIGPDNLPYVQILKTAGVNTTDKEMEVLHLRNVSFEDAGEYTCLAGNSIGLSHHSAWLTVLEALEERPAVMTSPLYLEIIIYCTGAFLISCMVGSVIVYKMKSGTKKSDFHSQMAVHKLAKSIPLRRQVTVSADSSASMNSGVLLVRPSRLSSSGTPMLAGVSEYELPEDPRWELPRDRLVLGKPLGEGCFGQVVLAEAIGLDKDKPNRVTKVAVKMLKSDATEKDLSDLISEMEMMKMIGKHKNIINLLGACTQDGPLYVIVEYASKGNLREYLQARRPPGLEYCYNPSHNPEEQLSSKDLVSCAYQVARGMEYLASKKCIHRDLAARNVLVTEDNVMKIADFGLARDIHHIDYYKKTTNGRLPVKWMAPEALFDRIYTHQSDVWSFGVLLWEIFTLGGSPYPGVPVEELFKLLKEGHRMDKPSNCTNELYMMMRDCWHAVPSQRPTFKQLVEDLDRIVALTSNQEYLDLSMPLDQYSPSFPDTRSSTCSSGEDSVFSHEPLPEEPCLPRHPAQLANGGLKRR
Method: as §1

p38 = p38 (Homo sapiens, UniProt Q16539); experiment: 33P-ATP filter binding kinase assay (MBP phosphorylation); assay type: biochemical; details: ATP Km
Chain of p38 (Q16539 whole entry): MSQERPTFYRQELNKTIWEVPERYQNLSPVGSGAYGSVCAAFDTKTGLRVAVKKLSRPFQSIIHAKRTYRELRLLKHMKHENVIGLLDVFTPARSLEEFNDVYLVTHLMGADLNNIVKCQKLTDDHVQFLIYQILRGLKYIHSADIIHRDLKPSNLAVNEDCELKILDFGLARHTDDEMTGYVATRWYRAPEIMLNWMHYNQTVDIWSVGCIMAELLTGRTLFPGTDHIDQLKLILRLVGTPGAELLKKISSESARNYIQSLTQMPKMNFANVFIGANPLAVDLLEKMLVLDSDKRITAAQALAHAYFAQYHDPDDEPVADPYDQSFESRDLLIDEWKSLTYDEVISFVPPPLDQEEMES
Method: as §1

p-ERK in A375 cells = experiment: A375 p-ERK cellular assay; assay type: cell-based; details: Homo sapiens, A-375, 1.25 h; A375 (V600E mutant BRAF melanoma), 75 min; read-out: mean EC50, reduction of ERK phosphorylation (p-ERK)
Method: A375 cells were seeded into 96-well micro plates (Costar, Corning, and Lowell, MA) at […] in phenol red free DMEM (Invitrogen, Carlsbad, CA) supplemented with 10% foetal bovine serum. After 48 h, the cells were treated with DMSO or multiple concentrations of AZ304 and then returned to the incubator for 75 min. Medium were then aspirated and cells were fixed with a 6% formaldehyde solution for 20 min at room temperature. Cells were washed once with PBS containing 0.05% Triton X-100 (PBST) and 0.6% hydrogen peroxide added for 20 min at room temperature. After washing again in PBST, cells were blocked with 10% FBS/PBST solution for 1 h at room temperature. After washing, p-ERK monoclonal antibody was added and the plates were placed at 4 °C for overnight. […] Quantification of signal was determined at OD405 using a SpectraMax plate reader (Molecular Devices, Sunnyvale, CA). […] EC50 was calculated using XLift.
Cells were incubated with DMSO or AZ304 for 75 min and p-ERK levels were determined using a p-ERK antibody based ELISA. […] Cells were incubated with DMSO or AZ304 (±EGF) for 75 min and p-ERK levels were determined using a p-ERK antibody based ELISA. […]

MDA-MB-231 = experiment: Cell proliferation assay (cell panel, MTS); assay type: cell-based; details: Homo sapiens, 72 h; MDA-MB-231, Breast, BRAF G464V HT, KRAS MT, 3 days
Method: (§2) The proliferation assays against a cell panel were performed as described in ref.[18] Briefly, the cells were treated with DMSO or multiple concentrations of AZ304 for 3 days. The cell growth was determined using the CellTiter 96 Aqueous One Cell Proliferation Assay (Promega, Madison, WI). […] The assays were done in triplicate across different plates.
(§3) Anti-proliferative activity of AZ304 against a panel of cell lines with different BRAF and RAS genetic status. […] Cell growth was determined by MTS assay.

Melma-3M = experiment: Cell proliferation assay (cell panel, MTS); assay type: cell-based; details: Homo sapiens, 72 h, Melanoma, BRAF V600E, RAS WT, 3 days
Method: as §2, §3

PC-3 = experiment: Cell proliferation assay (cell panel, MTS); assay type: cell-based; details: Homo sapiens, 72 h; PC-3, Prostate, BRAF WT, RAS WT, 3 days
Method: as §2, §3

NIH: OVCAR-3 = experiment: Cell proliferation assay (cell panel, MTS); assay type: cell-based; details: Homo sapiens, 72 h; NIH: OVCAR-3, Ovary, BRAF WT, RAS WT, 3 days
Method: as §2, §3

SK-MEL-3 = experiment: Cell proliferation assay (cell panel, MTS); assay type: cell-based; details: Homo sapiens, SK-MEL3, 72 h; SK-MEL-3, Melanoma, BRAF V600E, RAS WT, 3 days
Method: as §2, §3

HCT-15 = experiment: Cell proliferation assay (cell panel, MTS); assay type: cell-based; details: Homo sapiens, 72 h; HCT-15, Colon, BRAF WT, KRAS MT, 3 days
Method: as §2, §3

NCI-H1755 = experiment: Cell proliferation assay (cell panel, MTS); assay type: cell-based; details: Homo sapiens, 72 h; NCI-H1755, Lung, BRAF A468, RAS WT, 3 days
Method: as §2, §3

LNCaP clone FGC = experiment: Cell proliferation assay (cell panel, MTS); assay type: cell-based; details: Homo sapiens, 72 h, Prostate, BRAF WT, RAS WT, 3 days
Method: as §2, §3

PANC-1 = experiment: Cell proliferation assay (cell panel, MTS); assay type: cell-based; details: Homo sapiens, 72 h; PANC-1, Pancreas, BRAF WT, KRAS MT, 3 days
Method: as §2, §3

A549 = experiment: Cell proliferation assay (cell panel, MTS); assay type: cell-based; details: Homo sapiens, 72 h; A549, Lung, BRAF WT, KRAS MT, 3 days
Method: as §2, §3

IM-9 = experiment: Cell proliferation assay (cell panel, MTS); assay type: cell-based; details: Homo sapiens, 72 h; IM-9, Lymphoma, BRAF WT, NRAS MT, 3 days
Method: as §2, §3

HT29 = experiment: Cell proliferation assay (cell panel, MTS); assay type: cell-based; details: Homo sapiens, HT-29, 72 h; HT29, Colon, BRAF V600E HT, RAS WT, 3 days
Method: as §2, §3

Chain of SRC (P12931 whole entry, species assumed): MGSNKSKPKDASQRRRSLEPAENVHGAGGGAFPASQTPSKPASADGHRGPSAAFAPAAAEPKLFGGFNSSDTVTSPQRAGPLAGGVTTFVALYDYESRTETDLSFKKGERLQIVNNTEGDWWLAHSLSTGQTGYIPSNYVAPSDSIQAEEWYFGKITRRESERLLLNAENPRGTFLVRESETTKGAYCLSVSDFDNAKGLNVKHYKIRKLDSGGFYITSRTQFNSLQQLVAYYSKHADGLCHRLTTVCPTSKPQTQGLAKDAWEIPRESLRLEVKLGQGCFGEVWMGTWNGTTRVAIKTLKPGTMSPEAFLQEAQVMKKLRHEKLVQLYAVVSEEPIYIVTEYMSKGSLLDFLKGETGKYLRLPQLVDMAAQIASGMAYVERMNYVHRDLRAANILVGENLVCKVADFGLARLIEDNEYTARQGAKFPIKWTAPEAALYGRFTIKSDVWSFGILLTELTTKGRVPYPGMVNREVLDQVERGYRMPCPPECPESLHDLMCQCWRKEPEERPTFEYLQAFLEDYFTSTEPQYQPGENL

COc1ccc2c(Nc3cc(NC(=O)c4cccc(C(C)(C)C#N)c4)ccc3C)ncnc2c1 [AZ304]
IC50 (SRC): > 10 µM
IC50 (IGF1R): > 10 µM
IC50 (CSK): 7.05 µM
IC50 (EGFR): > 10 µM
IC50 (FGFR): > 10 µM
IC50 (p38): 0.006 µM
EC50 (p-ERK in A375 cells): 0.065 µM
GI50 (MDA-MB-231): 1.99 µM
GI50 (Melma-3M): 0.1 µM
GI50 (PC-3): 6.68 µM
GI50 (NIH: OVCAR-3): 11 µM
GI50 (SK-MEL-3): 0.53 µM
GI50 (HCT-15): 11.5 µM
GI50 (NCI-H1755): 7.72 µM
GI50 (LNCaP clone FGC): 3.32 µM
GI50 (PANC-1): 5.45 µM
GI50 (A549): 16.7 µM
GI50 (IM-9): 0.9 µM
GI50 (HT29): 0.51 µM
